Test system: anaesthetised Sprague Dawley rats
Test: Blood pressure test (4-point test against the standard AVP)
Format: in vivo
Conditions: result in words; for potency in respect of blood pressure increase: maximal blood pressure increase after intravenous injections, rats previously treated with dibenamine, related to standard AVP, compared with known derivatives 2 and 3; for specificity (ratio of potency blood pressure/potency antidiuresis, BP/AD): ratio of blood pressure potency to antidiuretic potency, compared with known compounds 1, 2 and 3; for length of the effect (index of persistence, I.P.): duration of the blood pressure effect in relation to standard AVP, compared with known substances 1, 2 and 3
Excerpt: Vasotocin derivatives according to the invention have been tested for potency of both blood pressure and antidiuretic activity in a so-called 4-point test, i.e. the activity of the test substances has been related to a standard preparation (AVP = arginine-vasopressin), and the effects of two dose levels for each substance have been analysed. In addition, two known pressor-specific analogs (VT derivatives) have been tested for a comparison, namely 1-mpa-2-Phe-8-Orn-VT (mpa = 3-mercaptopropionyl) (Huguenin, R.L., Boissonnas, R.A., 1966. Helv. Chim. Acta, 49, 711), and 2-Phe-8-Orn-VT (SE-332993, Sandoz).
Blood pressure tests were carried out on anaesthetised Sprague Dawley rats (about 250 g), previously treated with dibenamine (Dekanski, J., 1952. Br. J. Pharmacol. 7, 567). Maximal blood pressure increase after intravenous injections of peptide was used as a measure of the effect, expressed as intensity.
In addition to potency determination based on effect intensity, a measure of the length of the effect has been stated (index of persistence (I.P.), Pli ? ka, V., 1966. Arzheim. Forsch. 16, 886). This dimensionless factor is a measure of the effect duration of the respective analog in relation to the standard AVP.
In these two tests, a comparison was made between the effects of the respective derivative and the effect of a standard preparation, AVP, and potency was determined with the aid of a 4-point test and is indicated in international units per milligram (IU/mg) (Stürmer, E., i: Handbook of Experimental Pharmacology, 1966, Vol 23, pp 130-189).

Substance | potency in respect of blood pressure increase | specificity (ratio of potency blood pressure/potency antidiuresis, BP/AD) | length of the effect (index of persistence, I.P.)
1-Hmp-2-Phe-8-Orn-VT [compound 4] | very high potency | equivalent or higher specificity | 
1-Hmp-2-Phe-8-Orn(Ala)-VT [compound 6] | surprisingly high blood pressure potency | adequate specificity | considerably prolonged effect
1-Hmp-2-Phe-8-Dab-VT [compound 5] | very high potency | equivalent or higher specificity | 
Gly^o-1-Hmp-2-Phe-8-Orn-VT [compound 7] | surprisingly high blood pressure potency | adequate specificity | considerably prolonged effect

Reference: patent EP0380554B1, “VASOACTIVE PEPTIDES” (Ferring AB, priority 1987, dated 1993)
